Columns and labels:
[1] = Dissociation constant, pKa of the compound by potentiometric titration method; assay type: physicochemical
[2] = target: T1, N-acylneuraminate-9-phosphatase (Homo sapiens, UniProt Q8TBE9); assay: Inhibition of recombinant HDHD4 (unknown origin) using Neu5Ac-9-P as substrate assessed as release of phosphate after 30 mins by maiachite green assay
T1 sequence (Q8TBE9 whole entry): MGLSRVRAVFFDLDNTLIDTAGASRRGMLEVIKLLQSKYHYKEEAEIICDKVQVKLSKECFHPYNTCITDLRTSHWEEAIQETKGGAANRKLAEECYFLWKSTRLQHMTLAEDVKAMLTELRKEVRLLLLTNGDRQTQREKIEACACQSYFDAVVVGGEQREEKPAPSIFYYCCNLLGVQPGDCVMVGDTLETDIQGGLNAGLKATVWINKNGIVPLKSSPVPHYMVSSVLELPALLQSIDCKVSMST

[3] = target: T1, N-acylneuraminate-9-phosphatase; assay: Reversible inhibition of recombinant HDHD4 (unknown origin) using Neu5Ac-9-P as substrate assessed as release of phosphate after 30 mins by maiachite green assay

| pKa [1] | IC50 [2] [µM] | IC50 [3] [µM] | Compound |
| --- | --- | --- | --- |
| 3.6 | – | – | CC(=O)N[C@H]1[C@H]([C@H](O)[C@H](O)COP(=O)(O)O)O[C@](O)(C(=O)O)C[C@@H]1O |
| – | > 100 | – | CC(=O)N[C@H]1[C@H]([C@H](O)[C@H](O)CCC(=O)O)O[C@](O)(C(=O)O)C[C@@H]1O |
| 3.5 | – | 11 | CC(=O)N[C@H]1[C@H]([C@H](O)[C@H](O)CCP(=O)(O)O)O[C@](O)(C(=O)O)C[C@@H]1O |
| 3.2 | – | – | CC(=O)N[C@H]1[C@H]([C@H](O)[C@H](O)CO)O[C@](O)(C(=O)O)C[C@@H]1O |
| – | 93.7 | – | COC(=O)[C@]1(OC)C[C@H](O)[C@@H](NC(C)=O)[C@H]([C@H](O)[C@H](O)CCP(=O)(O)O)O1 |
| – | 49.8 | – | CO[C@@]1(C(=O)O)C[C@H](O)[C@@H](NC(C)=O)[C@H]([C@H](O)[C@H](O)CCP(=O)(O)O)O1 |

Source: ChEMBL document CHEMBL2401673, “Design, synthesis, functional and structural characterization of an inhibitor of N-acetylneuraminate-9-phosphate phosphatase: observation of extensive dynamics in an enzyme/inhibitor complex” (Bioorg Med Chem Lett, 2013)
